Measurements from patent publication US8791158B2, “Methods of treating meibomian gland dysfunction” (GTX, Inc., priority 2010, dated 2014).
Marks after values point to notes of the source that are not given here.

How the values were obtained:
[1] = Pharmacokinetic analysis of rabbit plasma after topical dosing, Example 4; assay type: in vivo; conditions: topical or ocular, 2.5 mg/kg, topical 2.5 mg/kg, day 11 of dosing, read-out: Mean plasma concentrations over time (AUC)
Protocol: Immediately after the animals had recovered from anesthesia, they were dosed with the appropriate test articles as indicated above. Drug dosing was done once daily for 14 d. Blood samples were collected at 30, 60, 120, 240 and 1440 minutes after dose administration on day 11 for pharmacokinetic analyses. Plasma was separated for HPLC analysis of parent drug concentrations. Tears were collected using Schirmer tear strips (Alcon, Tex.) on day 0 before surgery and 24 hours after the last administration of drug (day 15). The tears were stored at −80° C. until shipment for analysis. […] Area under the curve for each individual peak was determined using the GC ChemStation software. To normalize for the tear content, the lipid composition was expressed as a ratio of the lipid that was most affected by castration (palmitate) to one which remained relatively constant (stearate).
Plasma samples collected after dosing on day 11 were analyzed using an LCMS/MS method. […]
Mobile phase consisted of 60% acetonitrile, 40% water and 0.1% formic acid. […] The plasma concentration—time data were analyzed by non-compartmental methods using WinNonlin (Version 3.1, Pharsight Corporation, Mountain View, Calif., USA). The area under the plasma concentration—time curve from time zero to infinity (AUC) was calculated by the trapezoidal rule with extrapolation to time infinity. […]

[2] = tested on: orchiectomized (ORX) rabbits; experiment: Dose effect on palmitate:stearate ratio in tears, harderian and Meibomian glands, Example 5; assay type: in vivo, rabbit; conditions: for Palmitate:stearate ratio in Meibomian gland / Palmitate:stearate ratio in harderian gland / Palmitate:Stearate Ratio in Tears: ORX rabbits; for Palmitate:stearate ratio in Meibomian gland / Palmitate:stearate ratio in harderian gland: mean; for Increase of lipid (palmitate:stearate) ratio in harderian glands: topical 1.25 mg/kg (highest dose tested); for Change in Meibomian gland lipids / Dose dependence of palmitate:stearate ratio in harderian glands / Dose dependence of palmitate:stearate ratio in tears: topical 0.625 and 1.25 mg/kg; for Palmitate:Stearate Ratio in Tears: day 15, mean
Excerpt: The goal of this study was to determine the effect of dosage amounts of Compounds 1 and 2 on tear composition.
Thirty New Zealand white rabbits weighing approximately 3 lbs were allowed to acclimate for two weeks before the start of the study Animals were weighed on day 0 of the study, randomized according to body weight and allotted to the following orchiectomized (ORX) dose groups:
Surgeries for the study were staggered to limit the maximum number of surgeries per day to six. One animal from each group was entered into the study every day and castration was performed as described below. Animals were premedicated with glycopyrrolate (0.02 mg/kg) and anesthesia was induced with a combination of ketamine (15 mg/kg): medetomidine (0.25 mg/kg). Anesthesia was maintained with isoflurane (1 liter/hr). Orchiectomy was performed using a scrotal incision. Animals were reversed from anesthesia using atipamezole (1 mg/kg) SQ. Analgesia was provided with buprenorphine (0.05 mg/kg) SQ immediately after the animal's regained sternal recumbency.
Immediately after recovery from anesthesia, the animals were dosed with the appropriate test articles as indicated above. Drug dosing was performed once daily for 14 d. Blood samples were collected on day 11 of dosing at 0, 30, 60, 120, 240 and 1440 minutes post administration and to plasma separated for LCMS analysis of parent drug concentrations. Tears were collected using Schirmer tear strips (Alcon, Tex.) on day 0 before surgery and 24 hours after the last administration of drug (day 15). The tears were stored at −80° C. until shipment for lipid analysis. Lipids were hydrolyzed, extracted from the Schirmer strips, derivatized, and subjected to GC-FID to evaluate the lipid composition. The samples were evaluated for the presence of 28 saturated and unsaturated fatty acids that included methyl caprate (C10:0), methyl laurate (C12:0), methyl 11-dodecenoate (C12:1), methyl myri state (C14:0), methyl myristoleate (C14:1), methyl palmitate (C16:0), methyl palmitoleate (C16:1), methyl stearate (C18:0), methyl oleate (C18:1), methyl vaccenate (C18:1), methyl linoleate (C18:2), methyl gamma linoleate (C18:3), methyl linoleate (C18:3), methyl arachidate (C20:0), methyl 11-eicosenoate (C20:1), methyl 11,14 eicosadinoate (C20:2), methyl 8,11,14 eicosatrienoate (C20:3), methyl eicosapentaenoate (C20:5), methyl behenate (C22:0), methyl erucate (C22:1), methyl 13,16 docosaenoate (C22:2), methyl docosatetraenoate (C22:4), methyl docosapentaenoate (C22:5), methyl docosahexaenoate (C22:6), methyl lignocerate and (C24:0), methyl nervonate (C24:1). Area under the curve for each individual peak was determined using the GC ChemStation software. To normalize for the tear content, the lipid composition was expressed as a ratio of the lipid that was most affected by castration (palmitate) to one which remained relatively constant (stearate).
At the end of the study, the animals were euthanatized. The harderian and Meibomian glands were collected for lipid analysis and snap frozen using an ethanol: dry ice bath. Samples were stored at −80 C until ready to ship for analysis.
Lipids in rabbit tears are derived from secretions of the harderian and Meibomian glands. Lipid content in the glands was assayed using GCMS. […] The lipid ratio was increased by more than 2-fold by Compound 1 (1.25 mg/kg), while the effect of Compound 2 was even greater with an almost 3-fold increase in the lipid ratio seen at the highest dose tested (1.25 mg/kg).

Compound | AUC [1] [µM·h] | Palmitate:stearate ratio in Meibomian gland ([2]; topical 0.625 mg/kg) | Palmitate:stearate ratio in harderian gland ([2]; topical 0.625 mg/kg) | Palmitate:stearate ratio in Meibomian gland ([2]; topical 1.25 mg/kg) | Palmitate:stearate ratio in harderian gland ([2]; topical 1.25 mg/kg) | Increase of lipid (palmitate:stearate) ratio in harderian glands [2] | Change in Meibomian gland lipids [2] | Dose dependence of palmitate:stearate ratio in harderian glands [2] | Dose dependence of palmitate:stearate ratio in tears [2] | Palmitate:Stearate Ratio in Tears ([2]; topical 0.625 mg/kg once daily 14 d) | Palmitate:Stearate Ratio in Tears ([2]; topical 1.25 mg/kg once daily 14 d)
C[C@](O)(COc1ccc(C#N)cc1)C(=O)Nc1ccc(C#N)c(C(F)(F)F)c1 [Compound 1, (S)—N-(4-Cyano-3-(trifluoromethyl)phenyl)-3-(4-cyanophenoxy)-2-hydroxy-2-methylpropanamide] | 25.2 | 3.29 | 3.45^a,b | 3.68 | 4.87^a,b | more than 2 fold | No statistically significant change | dose dependent increase | no significant dose dependent changes |  | 
C[C@](O)(COc1ccc(C#N)c(F)c1)C(=O)Nc1ccc(C#N)c(C(F)(F)F)c1 [Compound 2, (S)—N-(4-cyano-3-(trifluoromethyl)phenyl)-3-(4-cyano-3-fluorophenoxy)-2-hydroxy-2-methylpropanamide] | 12.2 | 3.36 | 6.09^a,b | 3.31 | 5.30^a,b | ~3 fold | No statistically significant change | dose dependent increase | dose dependent increase | 2.67^a,b | 3.93^a,b
